We go through 13 compounds from patent US20250346599A1, “TRICYCLIC PHTHALAZINONE PARP INHIBITORS AND METHODS OF USE” (Valo Health, Inc., priority 2022, published 2025).

Molecules are shown by their SMILES.

In data set [1] the test system is tumors. Conditions: literature statement; cited from earlier work.
Data set [2] is described as follows: in vivo unbound brain to plasma ratio (Kpuu) at steady state. The settings on record: rat, brain and plasma (unbound), continuous intravenous infusion over 24 hours, Sprague Dawley rats, free drug in brain vs plasma. As for the experimental part: Compounds of the present technology are predicted to show BBB passage according to internal proprietary predictive models. These predictive models were further verified by in vivo experiments. In particular, in vivo unbound brain to plasma ratio (Kpuu) was measured at steady state by comparison of free drug concentrations (protein binding corrected) in brain and plasma after continuous intravenous infusion in Sprague Dawley rats over 24 hours, where a Kpuu of >0.3 represents good brain exposure of the compound.

Data set [3] has as its target PARP1 enzyme (Homo sapiens (Human), UniProt P09874). The data set can be described thus: PARP Mass Spectroscopy Assay (PARP1 enzymatic assay, nicotinamide detection). Conditions: 5 nM PARP1, 5 uM β-NAD, 60 min at RT, NAM by mass spectrometry. The format is biochemical. An outline of the steps: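 Compounds were pre-incubated 30 min at RT with 5 nM PARP1 and core histones, then reacted 60 min at RT with 5 uM β-NAD and activated DNA in Tris pH 8.0 buffer with MgCl2, NaCl, Triton X-100 and DTT. The reaction was quenched with 3ABA, and nicotinamide was measured by mass spectrometry. IC50 came from a four-parameter fit of 10-point curves.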

The target of data set [4] is human MDR1 (P-glycoprotein; P-gp) (Homo sapiens (Human), UniProt P08183). The experiment in a line: bi-directional MDCK-MDR1 permeability assay. The settings on record: for Papp A→B: dog; for Papp A→B / efflux ratio: MDCK-MDR1; for Papp A→B / MDCK-MDR1 Papp A→B (10^−6 cm/s): apical to basolateral direction; for efflux ratio: human, read-out: MDCK-MDR1 ER; for efflux ratio / MDCK-MDR1 ER: efflux ratio B→A/A→B. The format is in vitro ADME. An excerpt:
The bi-directional assay containing a Mandin Darby canine kidney (MDCK) cell line transfected with human MDR1 gene (P-glycoprotein; P-gp) designed to overexpress the MDR1 efflux transporter, a major efflux transporter at the blood brain barrier (BBB), uses an established method that measures the rate of flux of a compound across polarized cell monolayers. As well appreciated in the art, the data generated from the MDCK-MDR1 permeability assay may be used to predict in vivo absorption of drugs. The bi-directional MDCK-MDR1 permeability assay can identify and quantify levels of active efflux. Screening compounds in both the apical to basolateral direction (A→B) and basolateral to apical direction (B→A) across the cell monolayer provides a ratio of B→A/A→B (efflux ratio; “ER”). Unlike the Caco-2 assay, the MDCK-MDR1 assay is not subject to potential efflux interference by breast cancer resistance protein (BCRP). […] The data may further be used to predict blood brain barrier (BBB) permeability via calculation from the data of log(permeability-surface area product) (“log PS”), well-understood to be predictive of the in vivo log([brain concentration]/[plasma concentration]).

For data set [5] the following is noted: literature statement; cited from earlier work.

Sequence of human MDR1 (P-glycoprotein; P-gp) (P08183 whole entry): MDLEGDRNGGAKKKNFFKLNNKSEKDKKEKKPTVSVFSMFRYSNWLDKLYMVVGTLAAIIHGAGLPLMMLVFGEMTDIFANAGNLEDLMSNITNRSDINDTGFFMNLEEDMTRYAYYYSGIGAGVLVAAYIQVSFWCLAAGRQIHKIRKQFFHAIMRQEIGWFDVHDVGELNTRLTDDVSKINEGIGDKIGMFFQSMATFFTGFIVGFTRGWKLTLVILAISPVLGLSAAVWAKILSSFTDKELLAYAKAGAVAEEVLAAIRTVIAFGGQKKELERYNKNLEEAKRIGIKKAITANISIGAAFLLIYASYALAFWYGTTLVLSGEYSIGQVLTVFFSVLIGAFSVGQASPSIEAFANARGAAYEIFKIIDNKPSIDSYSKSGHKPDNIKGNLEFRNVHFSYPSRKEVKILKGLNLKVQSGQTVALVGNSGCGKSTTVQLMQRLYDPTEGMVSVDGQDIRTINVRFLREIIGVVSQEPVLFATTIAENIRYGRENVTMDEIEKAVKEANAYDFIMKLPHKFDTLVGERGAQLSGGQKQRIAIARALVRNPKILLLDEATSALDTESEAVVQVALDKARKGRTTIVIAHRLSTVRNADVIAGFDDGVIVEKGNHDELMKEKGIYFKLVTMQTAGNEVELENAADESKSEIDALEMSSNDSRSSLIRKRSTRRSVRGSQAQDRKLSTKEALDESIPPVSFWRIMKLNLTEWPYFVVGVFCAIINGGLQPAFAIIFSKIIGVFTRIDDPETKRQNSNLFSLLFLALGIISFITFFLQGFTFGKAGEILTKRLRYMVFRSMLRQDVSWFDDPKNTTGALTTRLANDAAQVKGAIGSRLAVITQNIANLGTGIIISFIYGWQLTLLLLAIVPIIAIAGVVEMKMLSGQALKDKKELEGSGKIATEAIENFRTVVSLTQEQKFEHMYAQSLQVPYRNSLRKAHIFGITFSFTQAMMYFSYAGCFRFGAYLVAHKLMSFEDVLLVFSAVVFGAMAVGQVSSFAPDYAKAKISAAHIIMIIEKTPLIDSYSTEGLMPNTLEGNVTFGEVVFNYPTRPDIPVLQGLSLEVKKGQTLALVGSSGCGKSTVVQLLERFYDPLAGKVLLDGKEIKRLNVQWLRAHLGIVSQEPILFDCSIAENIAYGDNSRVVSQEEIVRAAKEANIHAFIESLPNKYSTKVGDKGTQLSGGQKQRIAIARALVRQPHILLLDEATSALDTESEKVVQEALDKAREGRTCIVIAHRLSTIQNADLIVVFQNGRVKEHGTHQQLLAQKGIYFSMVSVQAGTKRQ
Sequence of PARP1 enzyme (P09874 whole entry): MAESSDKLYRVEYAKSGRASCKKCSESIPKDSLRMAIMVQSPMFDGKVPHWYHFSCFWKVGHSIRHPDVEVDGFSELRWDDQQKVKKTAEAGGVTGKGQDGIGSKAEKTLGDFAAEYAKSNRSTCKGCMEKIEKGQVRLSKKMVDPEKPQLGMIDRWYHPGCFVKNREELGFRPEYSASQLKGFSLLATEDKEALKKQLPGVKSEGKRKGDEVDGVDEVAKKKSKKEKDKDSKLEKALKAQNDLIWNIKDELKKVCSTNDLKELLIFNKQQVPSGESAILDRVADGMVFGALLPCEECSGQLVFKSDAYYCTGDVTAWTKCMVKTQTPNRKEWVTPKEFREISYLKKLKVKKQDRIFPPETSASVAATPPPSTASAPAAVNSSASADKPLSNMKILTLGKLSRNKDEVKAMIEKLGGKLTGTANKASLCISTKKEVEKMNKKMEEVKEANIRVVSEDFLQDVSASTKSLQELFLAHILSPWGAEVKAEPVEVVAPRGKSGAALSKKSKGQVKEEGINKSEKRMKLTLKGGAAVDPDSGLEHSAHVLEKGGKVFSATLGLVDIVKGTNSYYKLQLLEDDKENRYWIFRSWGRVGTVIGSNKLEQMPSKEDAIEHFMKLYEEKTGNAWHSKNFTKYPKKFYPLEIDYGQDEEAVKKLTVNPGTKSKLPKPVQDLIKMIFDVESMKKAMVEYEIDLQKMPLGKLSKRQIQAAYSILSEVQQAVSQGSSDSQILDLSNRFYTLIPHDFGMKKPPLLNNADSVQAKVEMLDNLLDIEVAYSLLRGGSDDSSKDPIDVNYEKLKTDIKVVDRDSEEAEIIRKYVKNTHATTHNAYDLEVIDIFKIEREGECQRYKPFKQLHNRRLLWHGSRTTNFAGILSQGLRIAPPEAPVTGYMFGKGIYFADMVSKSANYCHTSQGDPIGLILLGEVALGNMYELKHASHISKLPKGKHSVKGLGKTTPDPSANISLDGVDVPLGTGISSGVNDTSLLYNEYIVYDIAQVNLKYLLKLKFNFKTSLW

`C[C@]1(c2nc3c(C(N)=O)cccc3[nH]2)CCCN1` [veliparib]: the efficacy in tumors entry in data set [1] was “not efficacious in most tumors”.
A word on the IC50: it is the concentration needed to halve the response being measured. Read a high IC50 as a need for much substance. What is called Papp A→B is how fast a substance crosses the layer from the apical side. A higher Papp A→B goes with ready permeation. Regarding `C[C@@H]1Nc2cc(F)cc3c(=O)[nH]nc(c23)[C@H]1c1ccc(F)cc1F` [Compound 0174B, (8S,9S)-9-(2,4-difluorophenyl)-5-fluoro-8-methyl-2,7,8,9-tetrahydro-3H-pyrido[4,3,2-de]phthalazin-3-one], the Kp uu at 24 h in data set [2] worked out at 0.591. In data set [3], this compound registered an IC50 of 8 nM. Also, in data set [4], the Papp A→B amounted to 13.8 ×10⁻⁶ cm/s and the efflux ratio was 0.654.
Consider `O=C(c1cc(Cc2n[nH]c(=O)c3ccccc23)ccc1F)N1CCN(C(=O)C2CC2)CC1` [olaparib], for which the “central nervous system (CNS) penetration” value in data set [5] is “do not have good central nervous system (CNS) penetration”.
As to `O=c1[nH]nc2c3c(cc(F)cc13)NC[C@@H]2c1ccc(F)cc1F` [Compound 0114B, (S)-9-(2,4-difluorophenyl)-5-fluoro-2,7,8,9-tetrahydro-3H-pyrido[4,3,2-de]phthalazin-3-one], the Kp uu at 24 h in data set [2] was determined as 0.921. This compound returned an IC50 in data set [3] of 41 nM. Moreover, in data set [4], the Papp A→B was found to be 18.6 ×10⁻⁶ cm/s and the efflux ratio came to 0.55.
As for `NC(=O)c1cccc2cn(-c3ccc([C@@H]4CCCNC4)cc3)nc12` [niraparib], the “central nervous system (CNS) penetration” value in data set [5] was “do not have good central nervous system (CNS) penetration”.
As for `CNCc1ccc(-c2[nH]c3cc(F)cc4c3c2CCNC4=O)cc1` [rucaparib], the “central nervous system (CNS) penetration” value in data set [5] is “do not have good central nervous system (CNS) penetration”.
Regarding `Cn1ncnc1[C@H]1c2n[nH]c(=O)c3cc(F)cc(c23)N[C@@H]1c1ccc(F)cc1` [talazoparib], in data set [5], the “central nervous system (CNS) penetration” value is listed as “do not have good central nervous system (CNS) penetration”.
With `C[C@@H]1Nc2cc(F)cc3c(=O)[nH]nc(c23)[C@H]1c1ccc(Cl)c(F)c1` [Compound 0195B, (8S,9S)-9-(4-chloro-3-fluorophenyl)-5-fluoro-8-methyl-2,7,8,9-tetrahydro-3H-pyrido[4,3,2-de]phthalazin-3-one], half-maximal inhibition in data set [3] (IC50) required 26 nM. For the same compound, in data set [4], the Papp A→B worked out at 16.4 ×10⁻⁶ cm/s and the efflux ratio came out at 0.691.
In the case of `O=c1[nH]nc2c3c(cc(F)cc13)N[C@H]([C@H]1CCOC1)[C@H]2c1ccc(F)cc1F` [Compound 0115A], the IC50 in data set [3] worked out at 10 nM. Also, in data set [4], the “MDCK-MDR1 Papp A→B (10^−6 cm/s)” value is on record as 8.3 10^−6 cm/s and the “MDCK-MDR1 ER” value came out at 1.73.
In the same order, the values of `O=c1[nH]nc2c3c(cc(F)cc13)NC[C@H]2c1ccccn1` [Compound 0211A] are 27 nM, 9.25 10^−6 cm/s and 2.67.
On the same counts, the results for `O=c1[nH]nc2c3c(cc(F)cc13)N[C@H](C1CC1)[C@H]2c1ccccc1Cl` [Compound 0207B, (11R,12R)-12-(2-chlorophenyl)-11-cyclopropyl-7-fluoro-2,3,10-triazatricyclo[7.3.1.0^{5,13}]trideca-1,5(13),6,8-tetraen-4-one] are 6 nM, 14.4 10^−6 cm/s and 0.532.
On the same counts, the results for `O=c1[nH]nc2c3c(cc(F)cc13)N[C@H]([C@@H]1CCOC1)[C@H]2c1ccc(F)cc1F` [Compound 0115B] are 190 nM, 9.05 10^−6 cm/s and 2.04.
Consider `C[C@H]1Nc2cc(F)cc3c(=O)[nH]nc(c23)[C@@H]1c1ccccc1Cl` [Compound 0172A, (8R,9R)-9-(2-chlorophenyl)-5-fluoro-8-methyl-2,7,8,9-tetrahydro-3H-pyrido[4,3,2-de]phthalazin-3-one], for which half-maximal inhibition in data set [3] (IC50) required 10 nM. Also, in data set [4], the Papp A→B was 11 ×10⁻⁶ cm/s and the efflux ratio came out at 0.658.
